Measured values taken from patent US7547727B2, “Therapeutic cyclopentane derivatives” (Allergan, Inc., priority 2006, dated 2009).

Assays:
human EP2 receptors = biological target: T1, human EP2 receptors (Homo sapiens, UniProt P43116); experiment: Competition radioligand binding, EP2; details: HEK 293 cells stably expressing human EP2 receptors, [3H]PGE2
T1 construct: expressed in transfected cells; host or cells: HEK 293 (membranes or whole cells)
Protocol: Competition binding experiments were performed in a medium containing Hank's balanced salt solution, Hepes 20 mM, pH 7.3, membranes (˜60 μg protein) or 2×10^5 cells from HEK 293 cells stably expressing human EP2 receptors, [^3H]PGE2 (10 nM) and various concentrations of test compounds in a total volume of 300 μl. Reaction mixtures were incubated at 23° C. for 60 min, and were filtered over Whatman GF/B filters under vacuum. Filters were washed three times with 5 ml ice-cold buffer containing 50 mM Tris/HCl (pH 7.3). Non-specific binding was estimated in the presence of excess unlabeled PGE2 (10 μM). Binding data fitted to the binding model for a single class of binding sites, using nonlinear regression analysis. IC50 values thus obtained were converted to Ki using the equation of Ki=(IC50/(1+[L]/KD) where [L] represents PGE2 concentration (10 nM) and KD the dissociation constant for [^3H]PGE2 at human EP2 receptors (40 nM). […]
The cell homogenate was centrifuged at 19000 r.p.m. for 20 min at 4° C. using a Beckman Ti-60 rotor. The resultant pellet was resuspended in TME buffer to give a final 1 mg/ml protein concentration, as determined by Biorad assay. […]
[^3H-] […] 17-phenyl PGF2α and non-specific binding determined with 10^−5M of unlabeled PGE2, or 17-phenyl PGF2α, according to receptor subtype studied.

EP4 receptors = biological target: T2, EP4 receptors (Homo sapiens, UniProt P35408); experiment: Radioligand binding, EP4; details: HEK-293 cells stably expressing EP4 receptors, [3H]PGE2
T2 construct: expressed in transfected cells; host or cells: HEK-293 (plasma membrane fraction)
T2 sequence (P35408 whole entry): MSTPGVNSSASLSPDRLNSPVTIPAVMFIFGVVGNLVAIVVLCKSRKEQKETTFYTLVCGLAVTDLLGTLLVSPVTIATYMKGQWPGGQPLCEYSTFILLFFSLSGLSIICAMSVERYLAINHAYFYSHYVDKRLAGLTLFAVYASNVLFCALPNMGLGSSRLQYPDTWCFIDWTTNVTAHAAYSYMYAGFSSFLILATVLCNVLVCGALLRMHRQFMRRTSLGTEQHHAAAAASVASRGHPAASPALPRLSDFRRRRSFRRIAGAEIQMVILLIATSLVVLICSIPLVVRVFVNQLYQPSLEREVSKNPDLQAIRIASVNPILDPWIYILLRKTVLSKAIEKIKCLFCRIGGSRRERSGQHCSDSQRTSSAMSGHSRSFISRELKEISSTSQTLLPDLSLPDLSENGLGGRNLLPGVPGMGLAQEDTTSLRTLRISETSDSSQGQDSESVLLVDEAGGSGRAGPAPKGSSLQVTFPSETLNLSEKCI
Protocol: HEK-293 cells stably expressing the human or feline FP receptor, or EP1, EP2, or EP4 receptors were washed with TME buffer, scraped from the bottom of the flasks, and homogenized for 30 sec using a Brinkman PT 10/35 polytron. TME buffer was added to achieve a final 40 ml volume in the centrifuge tubes (the composition of TME is 100 mM TRIS base, 20 mM MgCl2, […]; 10N HCl is added to achieve a pH of 7.4).
The cell homogenate was centrifuged at 19000 r.p.m. for 20 min at 4° C. using a Beckman Ti-60 rotor. The resultant pellet was resuspended in TME buffer to give a final 1 mg/ml protein concentration, as determined by Biorad assay. Radioligand binding competition assays vs. [^3H-]17-phenyl PGF2α (5 nM) were performed in a 100 μl volume for 60 min. Binding reactions were started by adding plasma membrane fraction. The reaction was terminated by the addition of 4 ml ice-cold TRIS-HCl buffer and rapid filtration through glass fiber GF/B filters using a Brandel cell harvester. The filters were washed 3 times with ice-cold buffer and oven dried for one hour.
[^3H-] PGE2 (specific activity 180 Ci mmol) was used as the radioligand for EP receptors. [^3H] 17-phenyl PGF2α was employed for FP receptor binding studies. […] 17-phenyl PGF2α and non-specific binding determined with 10^−5M of unlabeled PGE2, or 17-phenyl PGF2α, according to receptor subtype studied.

hFP = biological target: T3, hFP (Homo sapiens, UniProt P43088); experiment: FLIPR calcium signal, FP; format: cell-based; details: HEK-293(EBNA) cells
T3 construct: expressed in transfected cells; host or cells: HEK-293(EBNA)
T3 sequence (P43088 whole entry): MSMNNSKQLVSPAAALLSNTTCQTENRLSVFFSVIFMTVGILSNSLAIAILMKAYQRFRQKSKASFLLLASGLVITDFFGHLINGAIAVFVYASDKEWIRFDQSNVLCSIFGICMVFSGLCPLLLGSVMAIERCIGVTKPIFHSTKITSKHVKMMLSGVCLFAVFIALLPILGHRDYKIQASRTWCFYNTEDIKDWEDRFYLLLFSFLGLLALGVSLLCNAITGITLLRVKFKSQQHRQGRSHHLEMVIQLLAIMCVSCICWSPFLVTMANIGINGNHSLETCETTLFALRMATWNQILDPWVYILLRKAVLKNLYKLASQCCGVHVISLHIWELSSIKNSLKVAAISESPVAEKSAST
Protocol: (§1) HEK-293(EBNA) cells, stably expressing one type or subtype of recombinant human prostaglandin receptors (prostaglandin receptors expressed: hDP/Gqs5; hEP1; hEP2/Gqs5; hEP3A/Gqi5; hEP4/Gqs5; hFP; hIP; hTP), were cultured in 100 mm culture dishes in high-glucose DMEM medium containing 10% fetal bovine serum, 2 mM I-glutamine, 250 μg/ml geneticin (G418) and 200 μg/ml hygromycin B as selection markers, and 100 units/ml penicillin G, 100 μg/ml streptomycin and 0.25 μg/ml amphotericin B.
(§2) Cells were seeded at a density of 5×10^4 cells per well in Biocoat® Poly-D-lysine-coated black-wall, clear-bottom 96-well plates (Becton-Dickinson) and allowed to attach overnight in an incubator at 37° C. Cells were then washed two times with HBSS-HEPES buffer (Hanks Balanced Salt Solution without bicarbonate and phenol red, 20 mM HEPES, pH 7.4) using a Denley Cellwash plate washer (Labsystems). […]
(§3) Cells were excited with an Argon laser at 488 nm, and emission was measured through a 510-570 nm bandwidth emission filter (FLIPR™, Molecular Devices, Sunnyvale, Calif.). […] The peak increase in fluorescence intensity was recorded for each well. […] The peak fluorescence change in each drug-containing well was then expressed relative to the controls. […]

hEP1 = biological target: T4, hEP1 (Homo sapiens, UniProt P34995); experiment: FLIPR calcium signal, EP1; format: cell-based; details: HEK-293(EBNA) cells
T4 construct: expressed in transfected cells; host or cells: HEK-293(EBNA)
T4 sequence (P34995 1-402): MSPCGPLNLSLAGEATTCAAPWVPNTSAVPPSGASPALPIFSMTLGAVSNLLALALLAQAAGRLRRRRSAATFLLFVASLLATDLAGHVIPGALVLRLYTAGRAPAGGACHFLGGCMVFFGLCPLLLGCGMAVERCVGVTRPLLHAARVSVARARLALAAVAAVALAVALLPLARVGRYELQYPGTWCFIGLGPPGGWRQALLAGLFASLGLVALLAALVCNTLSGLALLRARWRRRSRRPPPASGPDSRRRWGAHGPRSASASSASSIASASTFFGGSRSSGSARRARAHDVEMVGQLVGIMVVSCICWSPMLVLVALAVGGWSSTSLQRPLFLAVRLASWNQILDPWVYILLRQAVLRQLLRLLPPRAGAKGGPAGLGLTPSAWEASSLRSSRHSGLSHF
Protocol: as §1, §2, §3

hEP2/Gqs5 = biological target: T5, hEP2/Gqs5 (Homo sapiens, UniProt P43116); experiment: FLIPR calcium signal, EP2; format: cell-based; details: HEK-293(EBNA) cells, read-out: Ca2+ Signal-EC50(nM) EP2
T5 construct: expressed in transfected cells; host or cells: HEK-293(EBNA)
T5 sequence (P43116 whole entry): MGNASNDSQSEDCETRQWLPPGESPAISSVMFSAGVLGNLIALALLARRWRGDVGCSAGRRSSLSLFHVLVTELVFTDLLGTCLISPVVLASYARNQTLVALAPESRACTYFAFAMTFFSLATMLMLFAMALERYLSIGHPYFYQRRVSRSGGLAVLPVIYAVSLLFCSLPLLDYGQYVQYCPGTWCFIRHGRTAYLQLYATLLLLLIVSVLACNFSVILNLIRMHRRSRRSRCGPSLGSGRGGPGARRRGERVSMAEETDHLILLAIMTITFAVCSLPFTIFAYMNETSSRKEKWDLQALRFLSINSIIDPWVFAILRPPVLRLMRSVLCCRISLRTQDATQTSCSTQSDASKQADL
Protocol: as §1, §2, §3

hEP3A/Gqi5 = biological target: T6, hEP3A/Gqi5 (Homo sapiens, UniProt P43115); experiment: FLIPR calcium signal, EP3; format: cell-based; details: HEK-293(EBNA) cells, read-out: Ca2+ Signal-EC50(nM) EP3
T6 construct: expressed in transfected cells; host or cells: HEK-293(EBNA)
T6 sequence (P43115 1-390): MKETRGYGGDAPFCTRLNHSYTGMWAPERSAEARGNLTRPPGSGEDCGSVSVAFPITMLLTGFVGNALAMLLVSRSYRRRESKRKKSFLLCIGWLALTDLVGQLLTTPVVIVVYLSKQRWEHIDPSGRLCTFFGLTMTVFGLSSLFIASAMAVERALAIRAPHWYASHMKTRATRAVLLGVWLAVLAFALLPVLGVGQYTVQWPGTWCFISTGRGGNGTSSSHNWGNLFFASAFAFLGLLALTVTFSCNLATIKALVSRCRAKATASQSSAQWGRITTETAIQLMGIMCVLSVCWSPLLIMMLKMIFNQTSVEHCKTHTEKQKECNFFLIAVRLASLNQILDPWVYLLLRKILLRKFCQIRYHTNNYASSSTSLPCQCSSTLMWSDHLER
Protocol: as §1, §2, §3

hEP4/Gqs5 = biological target: T7, hEP4/Gqs5 (Homo sapiens, UniProt P35408); experiment: FLIPR calcium signal, EP4; format: cell-based; details: HEK-293(EBNA) cells
T7 construct: expressed in transfected cells; host or cells: HEK-293(EBNA)
T7 sequence (P35408 whole entry): as the sequence (P35408 whole entry) above
Protocol: as §1, §2, §3

hTP = biological target: T8, hTP (Homo sapiens, UniProt P21731); experiment: FLIPR calcium signal, TP; format: cell-based; details: HEK-293(EBNA) cells
T8 construct: expressed in transfected cells; host or cells: HEK-293(EBNA)
T8 sequence (P21731 1-343): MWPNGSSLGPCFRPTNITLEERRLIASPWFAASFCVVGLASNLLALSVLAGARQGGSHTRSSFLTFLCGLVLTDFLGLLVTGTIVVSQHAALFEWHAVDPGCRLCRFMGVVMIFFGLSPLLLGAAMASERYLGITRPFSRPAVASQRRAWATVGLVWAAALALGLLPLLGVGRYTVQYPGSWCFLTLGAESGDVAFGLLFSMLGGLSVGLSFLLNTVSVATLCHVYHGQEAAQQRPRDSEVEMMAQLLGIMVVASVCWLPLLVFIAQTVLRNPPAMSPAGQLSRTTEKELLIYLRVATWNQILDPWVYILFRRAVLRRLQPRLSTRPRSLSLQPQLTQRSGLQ
Protocol: as §1, §2, §3

hIP = biological target: T9, hIP (Homo sapiens, UniProt P43119); experiment: FLIPR calcium signal, IP; format: cell-based; details: HEK-293(EBNA) cells
T9 construct: expressed in transfected cells; host or cells: HEK-293(EBNA)
T9 sequence (P43119 whole entry): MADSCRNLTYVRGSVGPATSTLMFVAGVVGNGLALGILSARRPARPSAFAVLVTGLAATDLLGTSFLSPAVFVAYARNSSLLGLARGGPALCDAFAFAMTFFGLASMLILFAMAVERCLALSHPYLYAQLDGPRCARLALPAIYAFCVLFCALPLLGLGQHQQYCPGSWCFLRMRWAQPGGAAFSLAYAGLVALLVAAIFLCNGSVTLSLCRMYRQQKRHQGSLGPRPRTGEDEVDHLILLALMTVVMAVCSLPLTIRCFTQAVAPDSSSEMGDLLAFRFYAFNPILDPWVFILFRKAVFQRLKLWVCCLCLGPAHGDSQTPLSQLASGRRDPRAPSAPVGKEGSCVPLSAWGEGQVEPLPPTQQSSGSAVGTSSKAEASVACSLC
Protocol: as §1, §2, §3

hDP/Gqs5 = biological target: T10, hDP/Gqs5 (Homo sapiens, UniProt Q13258); experiment: FLIPR calcium signal, DP; format: cell-based; details: HEK-293(EBNA) cells
T10 construct: expressed in transfected cells; host or cells: HEK-293(EBNA)
T10 sequence (Q13258 1-359): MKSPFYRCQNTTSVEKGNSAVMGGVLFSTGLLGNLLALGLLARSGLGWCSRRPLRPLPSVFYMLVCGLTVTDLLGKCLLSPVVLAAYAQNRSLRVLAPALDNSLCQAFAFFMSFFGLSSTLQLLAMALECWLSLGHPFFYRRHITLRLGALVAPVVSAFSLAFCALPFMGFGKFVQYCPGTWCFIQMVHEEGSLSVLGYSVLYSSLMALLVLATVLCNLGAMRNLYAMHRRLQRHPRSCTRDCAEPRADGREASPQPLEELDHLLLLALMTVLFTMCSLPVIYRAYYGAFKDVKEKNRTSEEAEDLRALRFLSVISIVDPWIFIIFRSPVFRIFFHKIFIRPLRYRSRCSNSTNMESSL
Protocol: as §1, §2, §3

T1 sequence (P43116 whole entry): as the sequence (P43116 whole entry) above

For `CCCCCC(O)c1ccc([C@@H]2[C@@H](C/C=C\CCCC(=O)O)[C@H](C#N)C[C@H]2O)cc1` (stereo partly drawn) [(Z)-7-{(1S,2S,3R,5R)-5-Cyano-3-hydroxy-2-[4-(1-hydroxy-hexyl)-phenyl]-cyclopentyl}-hept-5-enoic acid], the Ki (human EP2 receptors) was 1250 nM, the Ki (EP4 receptors) was > 10000 nM and the “Ca2+ Signal-EC50(nM) FP” value (hFP) was “not active”. For the same compound, the “Ca2+ Signal-EC50(nM) EP1” value (hEP1) was “not active”, the EC50 (hEP2/Gqs5) was 34 nM and the EC50 (hEP3A/Gqi5) was 10000 nM. The “Ca2+ Signal-EC50(nM) EP4” value (hEP4/Gqs5) was “not active”, the “Ca2+ Signal-EC50(nM) TP” value (hTP) was “not active” and the “Ca2+ Signal-EC50(nM) IP” value (hIP) was “not active”. The “Ca2+ Signal-EC50(nM) DP” value (hDP/Gqs5) was “not active”.
